The assay concerns the target T1, human PPARγ ligand-binding domain (Homo sapiens, UniProt P37231).
T1 construct: expressed in transfected cells; host or cells: CV-1 cells (African green monkey kidney)
T1 sequence (P37231 204-505): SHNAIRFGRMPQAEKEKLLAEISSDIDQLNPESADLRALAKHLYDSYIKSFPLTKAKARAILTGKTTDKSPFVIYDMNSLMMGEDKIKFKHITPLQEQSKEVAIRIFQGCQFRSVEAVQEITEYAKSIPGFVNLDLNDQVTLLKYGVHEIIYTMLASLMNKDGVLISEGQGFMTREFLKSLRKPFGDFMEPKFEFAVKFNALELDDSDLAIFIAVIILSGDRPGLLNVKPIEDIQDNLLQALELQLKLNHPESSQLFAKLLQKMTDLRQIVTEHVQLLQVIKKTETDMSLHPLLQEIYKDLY
Nature of the assay: GAL4-hPPARγ luciferase reporter assay (PPARγ ligand activity) in transfected CV-1 cells. In kind it is cell-based. Particulars: for PPARγ ligand activity: 24 hour incubation, CV-1 cells, luciferase activity relative to non-treatment control (DMSO) = 100, average ± standard error, n=4. As for the experimental part: First, CV-1 cells (cultured cells derived from kidneys of male African green monkeys) were implanted on 24-well culture plates so as to be […] and cultured at 37° C. in 5% CO2 for 24 hours. As a medium, DMEM (Dulbecco's Modified Eagle Medium; manufactured by GIBCO) containing 10% FBS (fetal bovine serum) and a 10 mg/mL penicillin streptomycin solution was used. Next, using Lipofectamine system (manufactured by Invitrogen Corporation), pM-hPPARγ and p4×UASg-tk-luc were transfected into the cultured CV-1 cells. The above-noted pM-hPPARγ was a vector for expressing fused protein containing residues 1 - 147 of GAL4 binding domain and residues 204 - 505 of human PPARγ ligand-binding domain, whereas the above-noted p4×UASg-tk-luc was a reporter plasmid containing four copies of an upstream activating sequence (UAS) for GAL4 binding domain and a thymidine kinase gene promoter in front of a luciferase gene. After the transfection, the cells were cultured for about 24 hours, and then, the media for the cells were changed to media containing β-cryptoxantine at respective concentrations (0.1, 1.0, 10 and 70 μM) or media for non-treatment control, followed by an additional 24 hour incubation. The above-noted media containing β-cryptoxantine were prepared by adding β-cryptoxantine dissolved in dimethyl sulfoxide (DMSO) to the media, whereas the media for non-treatment control were prepared by adding only DMSO to the media. After the incubation, the cells were lysed for luciferase activation assay using a Dual-Luciferase Reporter Gene Assay system (manufactured by Promega Corporation) (measurement group).
Similarly to the measurement group, as a control group, the luciferase activation assay was performed using pM (a vector containing residues 1 - 147 of GAL4 binding domain and not containing residues 204-505 of PPARγ ligand-binding domain in pM-hPPARγ) instead of pM-hPPARγ. For each sample, the ratio between average light-emission intensities of the measurement group and the control group (n=4) (measurement group/control group) was calculated, and a luciferase activity relative to the non-treatment control was determined as the PPARγ ligand-binding activity of the sample.
For orientation: A reporter such as luciferase makes a cellular process visible.

With `CC1=C(/C=C/C(C)=C/C=C/C(C)=C/C=C/C=C(C)/C=C/C=C(C)/C=C/C2=C(C)C[C@@H](O)CC2(C)C)C(C)(C)CCC1` [β-cryptoxantine], for the setting “0.1 to 70 μM, activity increased in keeping with the concentration”, the “activity of PPARγ (result in words)” value is on record as “improved the activity of PPARγ”. In addition, the PPARγ ligand activity reads like this: (addition concentration 0.1 μM) 119 ± 18.4; (addition concentration 1.0 μM) 159 ± 25.0; (addition concentration 10 μM) 166 ± 21.7; (addition concentration 70 μM) 246 ± 22.5.

These data come from patent US20070218147A1, “Peroxisome Proliferator-Activated Receptor (Ppar) Activator, and Drugs, Supplements, Functional Foods and Food Additives Using the Same” (ARKRAY, INC., priority 2004, published 2007).
